Consider 13 compounds from patent publication US12310975B2, “Modulators of BCL6 proteolysis and associated methods of use” (Arvinas Operations, Inc., priority 2019, dated 2025).

As usually defined, the IC50 is the concentration that inhibits the measured activity by half. A higher IC50 goes with weaker potency. A word on the Dmax: it is the largest share of the target that was removed. Low readings indicate shallow degradation, high ones deep degradation.

Each structure is given as a SMILES string.

In the first assay the target is BCL6 (Homo sapiens (Human), UniProt P41182). The assay is described as follows: Immunofluorescence high content imaging of BCL6 degradation in T47D cells. In kind it is cell-based.
Conditions: not given
The method, then:
Immunofluorescence Protocol for High Cotent Imaging of BCL6
T47D cells were seeded in 100 μl volume of RPMI1640-10% FBS in a 96-well black/clear bottom plates for adherent lines (Corning #3904).
Day 1. T47D breast cancer epithelial cells were seeded at a density so that confluence is ˜70-90% at endpoint. Cells were seeded at 7K/0.1 ml/well the morning prior to the addition of exemplary bifunctional degradation compounds.
Day 2. Prepare an 11 point 3-fold serial dilution of exemplary bifunctional compound in DMSO and aliquot an appropriate volume to cell growth media to generate a 2× final concentration of exemplary bifunctional compound. Add an equal volume (0.1 ml) of 2× exemplary bifunctional compound/media mix to previously plated cells, for a final top concentration in aqueous cell growth media of 0.1 or 1 μM. Incubate for 3 days at 37° C., 5% CO2.
Day 5 Immunofluorescence. Discard cell media. Wash wells with 200 μl of room temperature phosphate-buffered saline (PBS). Prepared 4% paraformaldehyde (PFA) from 16% PFA (Electron Microscopy Sciences #15710) using 1×PBS. Fifty μl of 4% PF was added to each well and incubate for 15 minutes at room temperature to fix the cells. The PFA was aspirated and the cells washed twice with PBS (200 μl)).
Prepared 0.1% Triton X-100 in PBS using 10% triton X-100 stock. The cells were permeabilized by adding 100 ul of the 0.1% Triton X-100 in PBS to each well to permeabilize cells and incubating at room temperature for 15 minutes. Cells were washed twice with PBS.
Prepared 3% BSA/PBS (from Thermofisher #37515 Blocker BSA in TBS, 10%), and 100 ul was added to each well. The cells were incubated for at least 1 hour at room temperature.
Prepared 1% BSA/PBS using Blocker BSA/PBS, and the 3% BSA/PBS removed from the wells.
For no primary antibody controls, 50 μl 1% BSA/PBS was added.
Primary antibody (BCL6 Rb Ab, CST-14895, Cell Signaling) was diluted 1:300 in 1% BSA/PBS using Blocker BSA/PBS.
Fifty μl of primary antibody added to all remaining wells (i.e., all wells other than the primary antibody controls) and the cells were incubated overnight at 4° C. with slow orbital movement.
Day 6. Contents of the wells was removed and the cells washed four times with 200 ul PBS. 1% BSA/PBS was prepared using Blocker BSA in PBS.
Diluted secondary antibody goat anti-Rb IgG Alexa-488 1:1000, and cell mask-Alexa-647 1:3000 in 1% BSA/PBS in the same mix. Add 50 μl to each well and incubate at room temperature for 1 hour in the dark.
Cells were washed three times with 200 ul PBS, and then incubated for 10 minutes with 100 ul Hoechst dye at 1 μg/mL (20 mM stock) to stain cell nuclei. Wells were then washed with 200 μl PBS, and 100 ul of PBS was added to each well and the plate covered plate with a plastic opaque cover. Plates were stored at 4° C. and covered in aluminum foil until imaged.
Plates were equilibrated to room temperature prior to reading. The bottom of the plate was wiped with 70% isopropanol immediately prior to imaging.
10×, 4 fields/well, include Top hat smoothing in the analysis protocol.
With `CNC(=O)COc1cc2cc(Nc3nc(N4CCN(CC5CCN(c6ccc7c(c6)C(=O)N(C6CCC(=O)NC6=O)C7=O)CC5)CC4)ncc3Cl)ccc2n(C(C)C)c1=O` (stereo not shown) [Exemplary Compound 263, 2-[[6-([5-chloro-2-[4-([1-[2-(2,6-dioxopiperidin-3-yl)-1,3-dioxoisoindol-5-yl]piperidin-4-yl]methyl)piperazin-1-yl]pyrimidin-4-yl]amino)-1-isopropyl-2-oxoquinolin-3-yl]oxy]-N-methylacetamide], the IC50 fell in the range of 10 to 50 nM.

Still in this assay, the particulars now being: T47D.
As for `CNC(=O)COc1cc2cc(Nc3nc(N4CCN(CC5CCN(c6ccc7c(c6)C(=O)N(C6CCC(=O)NC6=O)C7=O)CC5)CC4)ncc3Cl)ccc2n(C(C)C)c1=O` (stereo not shown) [Exemplary Compound 263, 2-[[6-([5-chloro-2-[4-([1-[2-(2,6-dioxopiperidin-3-yl)-1,3-dioxoisoindol-5-yl]piperidin-4-yl]methyl)piperazin-1-yl]pyrimidin-4-yl]amino)-1-isopropyl-2-oxoquinolin-3-yl]oxy]-N-methylacetamide], the Dmax was 50 to 70%.

Staying with this assay, now noted: T47D cells.
For the compound `CNC(=O)COc1cc2cc(Nc3nc(N4CCC(CN5[C@H](C)CN(c6cccc(C(=O)NC7CCC(=O)NC7=O)c6F)C[C@@H]5C)CC4)ncc3Cl)ccc2n(C)c1=O` (mixture of isomers) [compound 370, rac-3-[(3R,5S)-4-({1-[5-chloro-4-({1-methyl-3-[(methylcarbamoyl)methoxy]-2-oxo-1,2-dihydroquinolin-6-yl}amino)pyrimidin-2-yl]piperidin-4-yl}methyl)-3,5-dimethylpiperazin-1-yl]-N-(2,6-dioxopiperidin-3-yl)-2-fluorobenzamide], the greatest degradation seen (Dmax) fell in the range of 50 to 70% and the IC50 was in the range of 10 to 50 nM.
Regarding `CNC(=O)COc1cc2cc(Nc3nc(N4CCC(CN5[C@H](C)CN(c6cccc7c6C(=O)N(C6CCC(=O)NC6=O)C7=O)C[C@@H]5C)CC4)ncc3Cl)ccc2n(C(C)C)c1=O` (mixture of isomers) [compound 381, rac-2-[(6-{[5-chloro-2-(4-{[(2R,6S)-4-[2-(2,6-dioxopiperidin-3-yl)-1,3-dioxo-2,3-dihydro-1H-isoindol-4-yl]-2,6-dimethylpiperazin-1-yl]methyl}piperidin-1-yl)pyrimidin-4-yl]amino}-2-oxo-1-(propan-2-yl)-1,2-dihydroquinolin-3-yl)oxy]-N-methylacetamide], the maximal degradation (Dmax) lay in the range of 50 to 70% and the IC50 was less than 10 nM.

The assay is the same for the next values; noted with them: class symbols A-D, read-out: EC50 (nM)*.
As to `CNC(=O)COc1cc2cc(Nc3nc(N4CCC(OCCOCCOCCOc5cc(-c6scnc6C)ccc5CNC(=O)[C@@H]5C[C@@H](O)CN5C(=O)[C@H](c5cc(C)no5)C(C)C)CC4)ncc3Cl)ccc2n(C)c1=O` [compound 49, (2S,4R)-N-(2-(2-(2-(2-((1-(5-chloro-4-((1-methyl-3-(2-(methylamino)-2-oxoethoxy)-2-oxo-1,2-dihydroquinolin-6-yl)amino)pyrimidin-2-yl)piperidin-4-yl)oxy)ethoxy)ethoxy)ethoxy)-4-(4-methylthiazol-5-yl)benzyl)-4-hydroxy-1-((S)-3-methyl-2-(3-methylisoxazol-5-yl)butanoyl)pyrrolidine-2-carboxamide], the DC50 is greater than 100 nM.
The same measure, in the same setting: to `CNC(=O)COc1cc2cc(Nc3nc(N4CCC(OCCOCCOCCOc5cc(-c6scnc6C)ccc5CNC(=O)[C@@H]5C[C@@H](O)CN5C(=O)[C@@H](c5cc(C)no5)C(C)C)CC4)ncc3Cl)ccc2n(C)c1=O` [compound 50, (2S,4R)-N-(2-(2-(2-(2-((1-(5-chloro-4-((1-methyl-3-(2-(methylamino)-2-oxoethoxy)-2-oxo-1,2-dihydroquinolin-6-yl)amino)pyrimidin-2-yl)piperidin-4-yl)oxy)ethoxy)ethoxy)ethoxy)-4-(4-methylthiazol-5-yl)benzyl)-4-hydroxy-1-((R)-3-methyl-2-(3-methylisoxazol-5-yl)butanoyl)pyrrolidine-2-carboxamide] belongs greater than 100 nM; to `CNC(=O)COc1cc2cc(Nc3nc(N4CCC(OCCOCCOCCOCC(=O)N[C@H](C(=O)N5C[C@H](O)C[C@H]5C(=O)NCc5ccc(-c6scnc6C)cc5)C(C)(C)C)CC4)ncc3Cl)ccc2n(C)c1=O` [compound 51, (2S,4R)-1-((S)-2-(tert-butyl)-14-((1-(5-chloro-4-((1-methyl-3-(2-(methylamino)-2-oxoethoxy)-2-oxo-1,2-dihydroquinolin-6-yl)amino)pyrimidin-2-yl)piperidin-4-yl)oxy)-4-oxo-6,9,12-trioxa-3-azatetradecanoyl)-4-hydroxy-N-(4-(4-methylthiazol-5-yl)benzyl)pyrrolidine-2-carboxamide], greater than 100 nM.
Still for that read-out and setting: to `CNC(=O)COc1cc2cc(Nc3nc(N4CCC(OCCOCCOCCOc5ccc6c(c5)C(=O)N(C5CCC(=O)NC5=O)C6=O)CC4)ncc3Cl)ccc2n(C)c1=O` (stereo not shown) [compound 52, 2-((6-((5-chloro-2-(4-(2-(2-(2-((2-(2,6-dioxopiperidin-3-yl)-1,3-dioxoisoindolin-5-yl)oxy)ethoxy)ethoxy)ethoxy)piperidin-1-yl)pyrimidin-4-yl)amino)-1-methyl-2-oxo-1,2-dihydroquinolin-3-yl)oxy)-N-methylacetamide] belongs 50 to 100 nM; to `CNC(=O)COc1cc2cc(Nc3nc(N4CCC(OCCOCCOc5cc(-c6scnc6C)ccc5CNC(=O)[C@@H]5C[C@@H](O)CN5C(=O)C(c5cc(C)no5)C(C)C)CC4)ncc3Cl)ccc2n(C)c1=O` (stereo partly drawn) [compound 53, (2S,4R)-N-(2-(2-(2-((1-(5-chloro-4-((1-methyl-3-(2-(methylamino)-2-oxoethoxy)-2-oxo-1,2-dihydroquinolin-6-yl)amino)pyrimidin-2-yl)piperidin-4-yl)oxy)ethoxy)ethoxy)-4-(4-methylthiazol-5-yl)benzyl)-4-hydroxy-1-(3-methyl-2-(3-methylisoxazol-5-yl)butanoyl)pyrrolidine-2-carboxamide], greater than 100 nM; to `CNC(=O)COc1cc2cc(Nc3nc(N4CCC(OCCOCCOCCOCCOc5cc(-c6scnc6C)ccc5CNC(=O)[C@@H]5C[C@@H](O)CN5C(=O)C(c5cc(C)no5)C(C)C)CC4)ncc3Cl)ccc2n(C)c1=O` (stereo partly drawn) [compound 54, (2S,4R)-N-(2-(2-(2-(2-(2-((1-(5-chloro-4-((1-methyl-3-(2-(methylamino)-2-oxoethoxy)-2-oxo-1,2-dihydroquinolin-6-yl)amino)pyrimidin-2-yl)piperidin-4-yl)oxy)ethoxy)ethoxy)ethoxy)ethoxy)-4-(4-methylthiazol-5-yl)benzyl)-4-hydroxy-1-(3-methyl-2-(3-methylisoxazol-5-yl)butanoyl)pyrrolidine-2-carboxamide], greater than 100 nM.
Same read-out and setting: to `CNC(=O)COc1cc2cc(Nc3nc(N4CCC(OCCOCCOCCOCCOCCOc5cc(-c6scnc6C)ccc5CNC(=O)[C@@H]5C[C@@H](O)CN5C(=O)C(c5cc(C)no5)C(C)C)CC4)ncc3Cl)ccc2n(C)c1=O` (stereo partly shown) [compound 55] belongs greater than 100 nM.
For `CNC(=O)COc1cc2cc(Nc3nc(N4CCC(OCCOc5cc(-c6scnc6C)ccc5CNC(=O)[C@@H]5C[C@@H](O)CN5C(=O)C(c5cc(C)no5)C(C)C)CC4)ncc3Cl)ccc2n(C)c1=O` (stereo partly drawn) [compound 56, (2S,4R)—N-(2-(2-((1-(5-chloro-4-((1-methyl-3-(2-(methylamino)-2-oxoethoxy)-2-oxo-1,2-dihydroquinolin-6-yl)amino)pyrimidin-2-yl)piperidin-4-yl)oxy)ethoxy)-4-(4-methylthiazol-5-yl)benzyl)-4-hydroxy-1-(3-methyl-2-(3-methylisoxazol-5-yl)butanoyl)pyrrolidine-2-carboxamide], the DC50 was greater than 100 nM.
For the compound `CNC(=O)COc1cc2cc(Nc3nc(N4CCC(OCCOCCOCCNc5cccc6c5C(=O)N(C5CCC(=O)NC5=O)C6=O)CC4)ncc3Cl)ccc2n(C)c1=O` (stereo not shown) [compound 57, 2-((6-((5-chloro-2-(4-(2-(2-(2-((2-(2,6-dioxopiperidin-3-yl)-1,3-dioxoisoindolin-4-yl)amino)ethoxy)ethoxy)ethoxy)piperidin-1-yl)pyrimidin-4-yl)amino)-1-methyl-2-oxo-1,2-dihydroquinolin-3-yl)oxy)-N-methylacetamide], the DC50 was greater than 100 nM.
Still for that read-out and setting: for `CNC(=O)COc1cc2cc(Nc3nc(N4CCC(OCCOCCOCCOCCOCCOCCOc5cc(-c6scnc6C)ccc5CNC(=O)[C@@H]5C[C@@H](O)CN5C(=O)C(c5cc(C)no5)C(C)C)CC4)ncc3Cl)ccc2n(C)c1=O` (stereo partly drawn) [compound 58, (2S,4R)-N-(2-((17-((1-(5-chloro-4-((1-methyl-3-(2-(methylamino)-2-oxoethoxy)-2-oxo-1,2-dihydroquinolin-6-yl)amino)pyrimidin-2-yl)piperidin-4-yl)oxy)-3,6,9,12,15-pentaoxaheptadecyl)oxy)-4-(4-methylthiazol-5-yl)benzyl)-4-hydroxy-1-(3-methyl-2-(3-methylisoxazol-5-yl)butanoyl)pyrrolidine-2-carboxamide] the value was greater than 100 nM.
